Some results are limits rather than exact numbers.

This passage reports IC50 and antitumor activity results from article PMC7344390, “Leptogorgins A–C, Humulane Sesquiterpenoids from the Vietnamese Gorgonian Leptogorgia sp” (Marine Drugs, 2020).

Assay [1] concerns PNT2 cells (human prostate non-cancer cells). Briefly: In vitro MTT-based drug sensitivity assay, PNT2 cells. The conditions noted are these: 72 h treatment, read-out: IC50 (cell viability, MTT). The method, then:
(§1) The human prostate cancer cells 22Rv1 and human prostate non-cancer cells PNT2 were purchased from ATCC. Cell lines were cultured according to the manufacturer’s instructions in 10% FBS/RPMI media (Invitrogen, Carlsbad, CA, USA) and handled as described in [29].
(§2) The in vitro cytotoxic activities of the isolated substances were evaluated by MTT assays. The assays were performed as described previously. In brief, cells were seeded in 96-well plates (6 × 10^3 cells/well), incubated overnight, and treated with the tested compounds for 72 h. Next, 10 μL/well of MTT reagent was added and the plates were incubated for 2 h. The media were aspirated and the plates were dried. The formed formazan crystals were dissolved in DMSO and the cell viability was measured using an Infinite F200PRO reader (TECAN, Männedorf, Switzerland). Results were calculated by the GraphPad Prism software v. 7.05 (GraphPad Prism software Inc., La Jolla, CA, USA) and are represented as the IC50 of the compounds against the control cells treated with the solvent alone.

In assay [2] the test system is 22Rv1 cells (human drug-resistant prostate cancer cells). Briefly: In vitro MTT-based drug sensitivity assay, 22Rv1 cells. As to conditions: 72 h treatment, read-out: IC50 (cell viability, MTT). As for the experimental part: as §1, §2
In assay [3] the test system is CaCO-2. Also noted: method as in PMID 12881017. The conditions noted are these: human cancer CaCO-2 cell line; more active than curcumin; cited from earlier work.
Assay [4] deals with NCF-7. Also noted: method as in PMID 12881017. The conditions noted are these: human cancer NCF-7 cell line; more active than curcumin; cited from earlier work.
Assay [5] deals with HT-29. Also noted: method as in PMID 12881017. The conditions noted are these: human cancer HT-29 cell line; more active than curcumin; cited from earlier work.

As usually defined, the IC50 is the concentration that inhibits the measured activity by half. For `CC1=CCC(C)(C)C=CC(=O)C(CO)=CC(O)C1` (stereo not drawn) [Compound 1, 4-oxohumula-2E,5E,9E-trien-7S,12-diol], the IC50 in assay [1] worked out at 35.8 µM; in assay [2], 31 µM.
`CC(=O)OC1C=C(CO)C(=O)C=CC(C)(C)CC=C(C)C1` (stereo not drawn) [Compound 2, 4-oxohumula-2E,5E,9E-trien-7S-acetate,12-ol]: the IC50 in assay [1] and in assay [2] was > 100 µM each time.
Take `COc1cccc2c1C(=O)c1c(O)c3c(c(O)c1C2=O)C[C@@](O)(C(=O)CO)C[C@@H]3O[C@H]1C[C@H](N)[C@H](O)[C@H](C)O1` [Doxorubicine]: the IC50 was 1.12 µM in assay [1] and 0.084 µM in assay [2].
With `C/C1=C\CC(C)(C)/C=C/C(=O)/C(C)=C/CC1` [zurumbone, 2,6,9-humulatriene-8-one], the antitumor activity result in assay [3], in assay [4] and in assay [5] was “active” each time.
